Assay results from PubChem BioAssay AID256 (DTP/NCI, 2004).
Values joined by “and” are separate entries in the source; they are usually repeats but may differ in a detail not shown here. Equal entries are not always repeated. Toxic doses and inconclusive results are not listed. The calls were made as follows: active = survival T/C of 150% or more; inactive = T/C below 125% in these data.

Tested on: CD2F1 mice, L1210 leukemia ip, survival T/C
Test: NCI In Vivo Anticancer Drug Screen. Data for tumor model L1210 Leukemia (intraperitoneal) in CD2F1 (CDF1) mice
Details: higher = longer survival
Outline: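 Vehicle-treated tumor-bearing mice served as controls (C) for compound-treated mice (T). Reported figure is T divided by C.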

[1] = endpoint: mean survival time, dose: 100.0 mg/kg/injection, schedule: Q04DX002 (ip), vehicle: saline with Tween-80
[2] = endpoint: mean survival time, dose: 50.0 mg/kg/injection, schedule: Q01DX009 (ip), vehicle: saline with Tween-80
[3] = endpoint: mean survival time, dose: 100.0 mg/kg/injection, schedule: Q01DX009 (ip), vehicle: saline with Tween-80
[4] = endpoint: mean survival time, dose: 200.0 mg/kg/injection, schedule: Q01DX009 (ip), vehicle: saline with Tween-80

Measured: T/C

CC1c2ccccc2C=CN1C (configuration not stated)
inactive: endpoint: mean survival time, dose: 100.0 mg/kg/injection, schedule: Q04DX003 (ip), vehicle: saline sonified 95 % of control | endpoint: mean survival time, dose: 200.0 mg/kg/injection, schedule: Q04DX003 (ip), vehicle: saline sonified 106 % of control | endpoint: mean survival time, dose: 400.0 mg/kg/injection, schedule: Q04DX003 (ip), vehicle: saline sonified 105 % of control

Cc1ccc(C2OC2C(=O)c2ccccc2)cc1 (configuration not stated)
inactive: endpoint: mean survival time, dose: 50.0 mg/kg/injection, schedule: Q04DX002 (ip), vehicle: saline with Tween-80 95 % of control | endpoint: mean survival time, dose: 100.0 mg/kg/injection, schedule: Q01DX001 (ip), vehicle: saline with Tween-80 94 % of control | [1] 91 % of control | endpoint: mean survival time, dose: 200.0 mg/kg/injection, schedule: Q01DX001 (ip), vehicle: saline with Tween-80 92 % of control | endpoint: mean survival time, dose: 400.0 mg/kg/injection, schedule: Q01DX001 (ip), vehicle: saline with Tween-80 94 % of control

CC(=O)Nc1ccc(/C=N/NC(=O)CNC(=O)NCc2ccco2)cc1
inactive: [2] 96 % of control | [3] 92 % of control | [4] 94 % of control

COc1cc2c(cc1OC)C(Cc1ccc(NC(=O)c3ccc(C(=O)Nc4ccc(CC5c6cc(OC)c(OC)cc6CCN5C)cc4)cc3)cc1)N(C)CC2 (configuration not stated)
inactive: endpoint: mean survival time, dose: 100.0 mg/kg/injection, schedule: Q01DX001 (ip), vehicle: other 107 % of control | endpoint: mean survival time, dose: 200.0 mg/kg/injection, schedule: Q01DX001 (ip), vehicle: other 101 % of control | endpoint: mean survival time, dose: 400.0 mg/kg/injection, schedule: Q01DX001 (ip), vehicle: other 103 % of control

CCOC(=O)c1ccc(N(CC)CC)cc1
inactive: [3] 95 % of control | endpoint: mean survival time, dose: 100.0 mg/kg/injection, schedule: Q04DX003 (ip), vehicle: saline with Tween-80 104 % of control | [4] 92 % of control | endpoint: mean survival time, dose: 200.0 mg/kg/injection, schedule: Q04DX003 (ip), vehicle: saline with Tween-80 98 % of control | endpoint: mean survival time, dose: 400.0 mg/kg/injection, schedule: Q01DX009 (ip), vehicle: saline with Tween-80 95 % of control | endpoint: mean survival time, dose: 400.0 mg/kg/injection, schedule: Q04DX003 (ip), vehicle: saline with Tween-80 94 % of control

COc1cc(CC(=O)NO)cc(OC)c1OC
inactive: [1] 88 % of control | endpoint: mean survival time, dose: 200.0 mg/kg/injection, schedule: Q04DX002 (ip), vehicle: saline with Tween-80 88 % of control

Nc1ncnc2c1ncn2C1OC(CO)C(O)C1O (configuration not stated)
inactive: endpoint: mean survival time, dose: 3.12 mg/kg/injection, schedule: Q01DX009 (ip), vehicle: Klucel (hydroxypropylcellulose) (HPC) 100 % of control | endpoint: mean survival time, dose: 6.25 mg/kg/injection, schedule: Q01DX009 (ip), vehicle: Klucel (hydroxypropylcellulose) (HPC) 100 % of control | endpoint: mean survival time, dose: 12.5 mg/kg/injection, schedule: Q01DX009 (ip), vehicle: Klucel (hydroxypropylcellulose) (HPC) 95 % of control | endpoint: mean survival time, dose: 18.7 mg/kg/injection, schedule: Q01DX009 (ip), vehicle: saline 87 % of control | endpoint: mean survival time, dose: 18.75 mg/kg/injection, schedule: Q01DX009 (ip), vehicle: saline 92 % of control | endpoint: mean survival time, dose: 18.75 mg/kg/injection, schedule: Q04DX003 (ip), vehicle: saline 97 % of control | endpoint: mean survival time, dose: 25.0 mg/kg/injection, schedule: Q01DX009 (ip), vehicle: Klucel (hydroxypropylcellulose) (HPC) 95 % of control | endpoint: mean survival time, dose: 25.0 mg/kg/injection, schedule: Q04DX003 (ip), vehicle: saline 100 % of control | endpoint: mean survival time, dose: 37.5 mg/kg/injection, schedule: Q01DX009 (ip), vehicle: saline 86 % of control and 96 % of control | endpoint: mean survival time, dose: 37.5 mg/kg/injection, schedule: Q04DX003 (ip), vehicle: saline 98 % of control | endpoint: mean survival time, dose: 50.0 mg/kg/injection, schedule: Q04DX003 (ip), vehicle: saline 100 % of control | endpoint: mean survival time, dose: 75.0 mg/kg/injection, schedule: Q01DX009 (ip), vehicle: saline 96 % of control | endpoint: mean survival time, dose: 110.0 mg/kg/injection, schedule: Q03HX024 (ip), vehicle: saline with Tween-80 120 % of control | endpoint: mean survival time, dose: 118.0 mg/kg/injection, schedule: Q01DX005 (ip), vehicle: water 102 % of control | endpoint: mean survival time, dose: 118.0 mg/kg/injection, schedule: Q01DX009 (ip), vehicle: water 104 % of control | endpoint: mean survival time, dose: 150.0 mg/kg/injection, schedule: Q01DX009 (ip), vehicle: saline 96 % of control and 100 % of control | endpoint: mean survival time, dose: 177.0 mg/kg/injection, schedule: Q01DX005 (ip), vehicle: water 99 % of control | endpoint: mean survival time, dose: 177.0 mg/kg/injection, schedule: Q01DX009 (ip), vehicle: water 117 % of control | [4] 117 % of control | endpoint: mean survival time, dose: 200.0 mg/kg/injection, schedule: Q03HX024 (ip), vehicle: saline with Tween-80 124 % of control | endpoint: mean survival time, dose: 266.0 mg/kg/injection, schedule: Q01DX005 (ip), vehicle: water 106 % of control | endpoint: mean survival time, dose: 266.0 mg/kg/injection, schedule: Q01DX009 (ip), vehicle: water 112 % of control | endpoint: mean survival time, dose: 300.0 mg/kg/injection, schedule: Q01DX009 (ip), vehicle: saline with Tween-80 114 % of control | endpoint: mean survival time, dose: 300.0 mg/kg/injection, schedule: Q01DX009 (ip), vehicle: saline 119 % of control and 97 % of control | endpoint: mean survival time, dose: 400.0 mg/kg/injection, schedule: Q01DX005 (ip), vehicle: water 108 % of control | endpoint: mean survival time, dose: 400.0 mg/kg/injection, schedule: Q01DX009 (ip), vehicle: water 112 % of control | endpoint: mean survival time, dose: 450.0 mg/kg/injection, schedule: Q01DX009 (ip), vehicle: saline with Tween-80 114 % of control | endpoint: mean survival time, dose: 600.0 mg/kg/injection, schedule: Q01DX005 (ip), vehicle: water 108 % of control | endpoint: mean survival time, dose: 600.0 mg/kg/injection, schedule: Q01DX009 (ip), vehicle: saline 105 % of control | endpoint: mean survival time, dose: 600.0 mg/kg/injection, schedule: Q01DX009 (ip), vehicle: water 114 % of control | endpoint: mean survival time, dose: 900.0 mg/kg/injection, schedule: Q01DX005 (ip), vehicle: water 113 % of control | endpoint: mean survival time, dose: 900.0 mg/kg/injection, schedule: Q01DX009 (ip), vehicle: water 109 % of control | endpoint: median survival time, dose: 1.56 mg/kg/injection, schedule: Q01DX009 (ip), vehicle: saline 111 % of control | endpoint: median survival time, dose: 3.12 mg/kg/injection, schedule: Q01DX009 (ip), vehicle: saline 109 % of control | endpoint: median survival time, dose: 6.25 mg/kg/injection, schedule: Q01DX009 (ip), vehicle: saline 110 % of control | endpoint: median survival time, dose: 11.25 mg/kg/injection, schedule: Q03HX012 (ip), vehicle: saline 112 % of control | endpoint: median survival time, dose: 12.5 mg/kg/injection, schedule: Q01DX009 (ip), vehicle: saline 108 % of control | endpoint: median survival time, dose: 22.5 mg/kg/injection, schedule: Q03HX012 (ip), vehicle: saline 107 % of control | endpoint: median survival time, dose: 25.0 mg/kg/injection, schedule: Q01DX009 (ip), vehicle: saline 115 % of control | endpoint: median survival time, dose: 45.0 mg/kg/injection, schedule: Q03HX012 (ip), vehicle: saline 112 % of control | endpoint: median survival time, dose: 50.0 mg/kg/injection, schedule: Q01DX009 (ip), vehicle: saline 79 % of control | endpoint: median survival time, dose: 90.0 mg/kg/injection, schedule: Q03HX012 (ip), vehicle: saline 116 % of control | endpoint: median survival time, dose: 180.0 mg/kg/injection, schedule: Q03HX012 (ip), vehicle: saline 122 % of control

Nc1cc2c(nnn2C(c2ccccc2)c2ccccc2)c(N)n1
inactive: endpoint: mean survival time, dose: 100.0 mg/kg/injection, schedule: Q01DX001 (ip), vehicle: carboxymethylcellulose (CMC) 98 % of control | endpoint: mean survival time, dose: 200.0 mg/kg/injection, schedule: Q01DX001 (ip), vehicle: carboxymethylcellulose (CMC) 92 % of control | endpoint: mean survival time, dose: 400.0 mg/kg/injection, schedule: Q01DX001 (ip), vehicle: carboxymethylcellulose (CMC) 95 % of control

O=C(Nc1ccccc1[N+](=O)[O-])Oc1ccccc1
inactive: endpoint: mean survival time, dose: 75.0 mg/kg/injection, schedule: Q04DX002 (ip), vehicle: saline with Tween-80 96 % of control | endpoint: mean survival time, dose: 150.0 mg/kg/injection, schedule: Q04DX002 (ip), vehicle: saline with Tween-80 96 % of control | endpoint: mean survival time, dose: 300.0 mg/kg/injection, schedule: Q04DX002 (ip), vehicle: saline with Tween-80 96 % of control

CC(=O)OCC1OC(N2C(=O)C=CC2=O)C(OC(C)=O)C1OC(C)=O (configuration not stated)
inactive: endpoint: mean survival time, dose: 1.56 mg/kg/injection, schedule: Q01DX005 (ip), vehicle: water 110 % of control | endpoint: mean survival time, dose: 3.13 mg/kg/injection, schedule: Q01DX005 (ip), vehicle: water 96 % of control | endpoint: mean survival time, dose: 6.25 mg/kg/injection, schedule: Q01DX005 (ip), vehicle: water 104 % of control | endpoint: mean survival time, dose: 12.5 mg/kg/injection, schedule: Q01DX005 (ip), vehicle: water 95 % of control and 102 % of control | endpoint: mean survival time, dose: 25.0 mg/kg/injection, schedule: Q01DX005 (ip), vehicle: water 106 % of control

CCOC(=O)CO
inactive: endpoint: mean survival time, dose: 50.0 mg/kg/injection, schedule: Q01DX009 (ip), vehicle: saline 104 % of control | endpoint: mean survival time, dose: 100.0 mg/kg/injection, schedule: Q01DX009 (ip), vehicle: saline 93 % of control | endpoint: mean survival time, dose: 200.0 mg/kg/injection, schedule: Q01DX009 (ip), vehicle: saline 101 % of control

O=C1OC2(c3ccccc31)c1ccccc1-c1ccccc12
inactive: [2] 97 % of control | [3] 100 % of control | [4] 100 % of control
